{
  "source": "patent US20100144845A1",
  "about": "“OLIGONUCLEOTIDE SYSTEMS FOR TARGETED INTRACELLULAR DELIVERY” (Massachusetts Institute of Technology, priority 2006, published 2010)",
  "key": {"[1]": {"tested_on": "LNCaP cells", "test": "MTT cell viability assay", "format": "cell-based", "conditions": "drug concentration 5 μM, Dox to RNA 1:1, treated approximately one hour, total of 72 hours", "experimental": "(§1) Doxorubicin (Dox), a cytotoxic drug commonly used in chemotherapy that can dock into double-stranded portions of nucleic acids because of the stacking capacity of its many-ringed structure, was “loaded” onto oligonucleotides at a molar ratio of 1:1, Dox to RNA, e.g., as described in Bagalkot, V. et al., Angewandte Chemie (International ed 45, 8149-8152 (2006) (the drug concentration was 5 μM). MTT assays were performed essentially as previously described, e.g., in Akaishi, S. et al., The Tohoku Journal of Experimental Medicine 175, 29-42 (1995). Briefly, 100 μl aliquots of LNCaP or PC3 cells (5×10^3 cells/mL) were seeded in 24-well plates (n=5), allowed to grow overnight and treated, for approximately one hour, with 100 μL of either a) nothing; b) Dox alone; c) Dox conjugated with the initial library; d) Dox conjugated to the Rd-12 population of the LNCaP selection; or e) Dox conjugated to the Rd-12 population of the PC3 selection; then washed and further incubated, in fresh media, for a total of 72 hours. The cells were then washed twice with EBSS, treated with 50 μL MTT solution for 4 hours, and lysed with MTT-detergent overnight. The absorbance was measured the following day using micro-plate reader at 570 nm."}, "[2]": {"tested_on": "PC3 cells", "test": "MTT cell viability assay", "format": "cell-based", "conditions": "drug concentration 5 μM, Dox to RNA 1:1, treated approximately one hour, total of 72 hours", "experimental": "as §1"}},
  "data": [
    {"smiles": "COc1cccc2c1C(=O)c1c(O)c3c(c(O)c1C2=O)C[C@@](O)(C(=O)CO)C[C@@H]3O[C@H]1C[C@H](N)[C@H](O)[C@H](C)O1", "note": "[Dox, Doxorubicin]", "values": [
      {"measurement": "effectiveness (cytotoxicity) in MTT assay", "setting": "[1]", "result": "equipotent against PC3 and LNCaP cells"},
      {"measurement": "effectiveness (cytotoxicity) in MTT assay", "setting": "[2]", "result": "equipotent against PC3 and LNCaP cells"}
    ]}
  ]
}
